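Exposure lasted 48 hours, with cells grown in 96-well plates and compounds tested at five concentrations. GI50 is the concentration that inhibits growth by half. TGI is the concentration that stops growth completely.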
Experiments:
Experiment in all cases: NCI tumour cell line growth inhibition, 48 h
[1] = system: 786-0 renal
[2] = system: A498 renal
[3] = system: A549 NSCLC
[4] = system: ACHN renal
[5] = system: BT-549 breast
[6] = system: CAKI-1 renal
[7] = system: CCRF-CEM leukemia
[8] = system: COLO 205 colon
[9] = system: DU-145 prostate
[10] = system: EKVX NSCLC
[11] = system: HCC-2998 colon
[12] = system: HCT-116 colon
[13] = system: HCT-15 colon
[14] = system: HL-60(TB) leukemia
[15] = system: HOP-62 NSCLC
[16] = system: HOP-92 NSCLC
[17] = system: HS 578T breast
[18] = system: HT29 colon
[19] = system: IGROV1 ovarian
[20] = system: K-562 leukemia
[21] = system: KM12 colon
[22] = system: LOX IMVI melanoma
[23] = system: M14 melanoma
[24] = system: MALME-3M melanoma
[25] = system: MCF7 breast
[26] = system: MDA-MB-231 breast
[27] = system: MDA-MB-435
[28] = system: MOLT-4 leukemia
[29] = system: NCI-H226 lung
[30] = system: NCI-H23 lung
[31] = system: NCI-H460 lung
[32] = system: NCI-H522 lung
[33] = system: NCI/ADR-RES ovarian
[34] = system: OVCAR-3 ovarian
[35] = system: OVCAR-4 ovarian
[36] = system: OVCAR-5 ovarian
[37] = system: OVCAR-8 ovarian
[38] = system: PC-3 prostate
[39] = system: RPMI-8226 leukemia
[40] = system: RXF 393 renal
[41] = system: SF-268 CNS
[42] = system: SF-295 CNS
[43] = system: SF-539 CNS
[44] = system: SK-MEL-2 melanoma
[45] = system: SK-MEL-28 melanoma
[46] = system: SK-MEL-5 melanoma
[47] = system: SK-OV-3 ovarian
[48] = system: SN12C renal
[49] = system: SNB-19 CNS
[50] = system: SNB-75 CNS
[51] = system: SR leukemia
[52] = system: SW-620 colon
[53] = system: T-47D breast
[54] = system: TK-10 renal
[55] = system: U251 CNS
[56] = system: UACC-257 melanoma
[57] = system: UACC-62 melanoma
[58] = system: UO-31 renal

Nc1nc(-c2cccc([N+](=O)[O-])c2)c(N=Nc2ccc([N+](=O)[O-])cc2Cl)s1
GI50 [1]: 351 nM
TGI [1]: 7.21 µM
GI50 [2]: 270 nM
TGI [2]: 737 nM
GI50 [3]: 354 nM
TGI [3]: > 34.9 µM
GI50 [4]: 287 nM
TGI [4]: 11.3 µM
GI50 [5]: 206 nM
TGI [5]: 842 nM
GI50 [6]: 204 nM
TGI [6]: 1700 nM
GI50 [7]: 310 nM
TGI [7]: 9.12 µM
GI50 [8]: 342 nM
TGI [8]: 1290 nM
GI50 [9]: 383 nM
TGI [9]: > 49.9 µM
GI50 [10]: 260 nM
TGI [10]: 4.2 µM
GI50 [11]: 309 nM
TGI [11]: 7.42 µM
GI50 [12]: 231 nM
TGI [12]: 1230 nM
GI50 [13]: 193 nM
TGI [13]: 2000 nM
GI50 [14]: 254 nM
TGI [14]: 1130 nM
GI50 [15]: 312 nM
TGI [15]: 1700 nM
GI50 [16]: 48.6 nM
TGI [16]: 418 nM
GI50 [17]: 239 nM
TGI [17]: 1210 nM
GI50 [18]: 342 nM
TGI [18]: 4.38 µM
GI50 [19]: 446 nM
TGI [19]: 18.5 µM
GI50 [20]: 151 nM
TGI [20]: 4.99 µM
GI50 [21]: 272 nM
TGI [21]: 3.73 µM
GI50 [22]: 317 nM
TGI [22]: 4.61 µM
GI50 [23]: 377 nM
TGI [23]: 6.75 µM
GI50 [24]: 172 nM
TGI [24]: 739 nM
GI50 [25]: 192 nM
TGI [25]: 1360 nM
GI50 [26]: 289 nM
TGI [26]: 1780 nM
GI50 [27]: 291 nM
TGI [27]: 3.65 µM
GI50 [28]: 266 nM
TGI [28]: 2580 nM
GI50 [29]: 196 nM
TGI [29]: 816 nM
GI50 [30]: 168 nM
TGI [30]: 786 nM
GI50 [31]: 243 nM
TGI [31]: 1260 nM
GI50 [32]: 119 nM
TGI [32]: 2490 nM
GI50 [33]: 254 nM
TGI [33]: 2050 nM
GI50 [34]: 245 nM
TGI [34]: 12.9 µM
GI50 [35]: 274 nM
TGI [35]: > 67.4 µM
GI50 [36]: 535 nM
TGI [36]: 36.4 µM
GI50 [37]: 308 nM
TGI [37]: 4.46 µM
GI50 [38]: 244 nM
TGI [38]: 7.39 µM
GI50 [39]: 99.6 nM
GI50 [40]: 251 nM
TGI [40]: 704 nM
GI50 [41]: 310 nM
TGI [41]: > 41.4 µM
GI50 [42]: 261 nM
TGI [42]: 1110 nM
GI50 [43]: 344 nM
TGI [43]: 10.4 µM
GI50 [44]: 86 nM
TGI [44]: 401 nM
GI50 [45]: 336 nM
TGI [45]: 8.14 µM
GI50 [46]: 87.7 nM
TGI [46]: 286 nM
GI50 [47]: 160 nM
TGI [47]: 1000 nM
GI50 [48]: 261 nM
TGI [48]: 4.57 µM
GI50 [49]: 311 nM
TGI [49]: 20.8 µM
GI50 [50]: 171 nM
TGI [50]: 2280 nM
GI50 [51]: 293 nM
TGI [51]: 2940 nM
GI50 [52]: 325 nM
TGI [52]: 5.46 µM
GI50 [53]: 67.1 nM
TGI [53]: 771 nM
GI50 [54]: 573 nM
TGI [54]: 8.87 µM
GI50 [55]: 213 nM
TGI [55]: 1320 nM
GI50 [56]: 133 nM
TGI [56]: 1370 nM
GI50 [57]: 144 nM
TGI [57]: 1620 nM
GI50 [58]: 236 nM
TGI [58]: 1380 nM

— PubChem BioAssay (NCI)
